The source of these data is patent US20250114313A1, “OLIGO-BENZAMIDE ANALOGS AND THEIR USE IN CANCER TREATMENT” (BOARD OF REGENTS, THE UNIVERSITY OF TEXAS SYSTEM, priority 2022, published 2025).

Entries after “also recorded” stand apart in the source; their conditions may differ. Where two headings read alike, the source gives them in different places.

Series [1] relates to ovarian cancer cells and breast cancer cells. As to the kind of experiment: ERX-315 in cancer cell lines. The class given is cell-based.
Series [2] concerns BC xenografts expressing the Y537S ERα mutant (ZR75, MCF7). As to the kind of experiment: ERX-315 in therapy resistant BC xenografts (Y537S ERα mutant ZR75, MCF7). Type of series: in vivo, mouse.
Series [3] in a line: ERX-315 in syngeneic D2A1 tumor model, organ evaluation. The conditions noted are these: syngeneic D2A1 tumors. Type of series: in vivo, mice.
The target of another series is T1, ER Alpha-LBD (GST) (Homo sapiens, UniProt P03372).
T1 construct: 3.5 nM ER Alpha-LBD (GST); purchased life technologies A15885
T1 sequence (P03372 311-547 limits assumed): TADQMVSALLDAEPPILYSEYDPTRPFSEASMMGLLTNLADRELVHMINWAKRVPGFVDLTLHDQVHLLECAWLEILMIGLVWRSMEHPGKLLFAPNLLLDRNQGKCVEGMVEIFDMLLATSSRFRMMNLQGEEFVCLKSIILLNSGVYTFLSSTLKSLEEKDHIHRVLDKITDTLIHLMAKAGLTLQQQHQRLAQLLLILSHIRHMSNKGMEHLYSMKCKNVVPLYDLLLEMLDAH
The experiment in a line: LanthaScreen TR-FRET ER alpha Coactivator Assay, antagonist mode. The class given is binding. As to conditions: 2 h incubation. (TR-FRET usually uses a lanthanide donor and a delayed reading to cut background.)

In series [4] the test system is SUM-159 cells with LIPA KO. The experiment in a line: UPR induction and protein synthesis in SUM-159 cells with LIPA KO (RNA-seq, RT-qPCR, western). Type of series: cell-based, Human. The conditions noted are these: known ER stress inducers. The protocol: Western blotting: Whole cell lysates from breast cancer cells were prepared with 2× sample buffer (60 mM Tris-HCl, pH 6.8, 2% sodium dodecyl sulfate, 10% glycerol), and before loading mixed with loading buffer (5% 2-mercaptoethanol, 0.1% bromophenol blue) and boiled for denaturation, as previously described.^33 Proteins were separated by SDS-PAGE and subjected to Western analysis using antibodies. To detect nascent translated proteins, puromycin (final concentration 10 μg/mL) was added into cell plates 30 minutes before harvesting cells. Then samples were subjected to the Western blotting. Nascent proteins were detected by anti-puromycin antibody.
Real-time quantitative PCR (RT-qPCR): Total RNA was prepared from breast cancer cells using the RNeasy Mini Kit (Qiagen) according to the manufacturer protocols. Subsequently, total RNAs were reverse transcribed into cDNA using iScript Reverse Transcription Supermix (Bio-rad) and by using SYBR Green on an Illumina Real-Time PCR system.
RNA-sequencing: mRNA-seq sequencing library construction was performed using TruSeq RNA Library Preparation Kit (Illumina) according to the manufacturer's instructions. FASTQ reads from Genomics Core at UTSW were mapped to Human GRCh38 genome using HiSAT2 (RRID:SCR_015530). Differential expression analysis is performed using DEseq2 (RRID:SCR_015687). Abundances of transcripts are calculated using ballgown (Frazee et al. 2014). The values of Fragments Per Kilobase of transcript per Million mapped reads (FPKM) were used for Gene Set Enrichment Analysis (GSEA). GSEA was performed by using the GSEA software (RRID:SCR_005724) and C5 ontology gene sets (14765 gene sets in total). mRNA-seq data from this study are available from NCBI GEO under accession #GSE168800.

In series [5] the test system is ERα-positive breast cancer cells (MCF-7, ZR-75). The experiment in a line: MTT cell viability, ERα-positive breast cancer cells. Type of series: cell-based, Human. As to conditions: MCF-7 and ZR-75, read-out: anti-proliferative IC50. The protocol:
(§1) Cell viability assays: Cells were seeded in 96-well plates (2×10^3 cells/well) one day before the treatment. Cells were treated with varying concentrations of ERX-41 or ERX-11 analogs for 3-6 days. Then effects of ERX-41 or ERX-11 analogs on cell viability were measured in triplicate or sextuplicate with multiple biological replicates using the WST-1 (Promega), MTT as previously described^33 or CellTiter-Glo 2.0 (Promega) assays.

The test system of series [6] is TNBC cells (SUM-159, MDA-MB-231). The experiment in a line: MTT cell viability, TNBC cells. The class given is cell-based, Human. The protocol: as §1
Series [7] concerns ERα-positive breast cancer cells (MCF-7, ZR-75). As to conditions: therapy-sensitive and therapy-resistant ERα-positive breast cancers; inventors' previous work; read-out: IC50, block of ERα signaling and ERα-driven proliferation; cited from earlier work.
For series [8] the following is noted: earlier finding; cited from earlier work.
For a further series, the target named is T2, LAL lipase activity (Homo sapiens, UniProt P38571).
T2 construct: heat stability of LAL or vinculin protein in SUM-159 cells; endogenous in cells; host or cells: SUM-159
T2 sequence (P38571 77-399): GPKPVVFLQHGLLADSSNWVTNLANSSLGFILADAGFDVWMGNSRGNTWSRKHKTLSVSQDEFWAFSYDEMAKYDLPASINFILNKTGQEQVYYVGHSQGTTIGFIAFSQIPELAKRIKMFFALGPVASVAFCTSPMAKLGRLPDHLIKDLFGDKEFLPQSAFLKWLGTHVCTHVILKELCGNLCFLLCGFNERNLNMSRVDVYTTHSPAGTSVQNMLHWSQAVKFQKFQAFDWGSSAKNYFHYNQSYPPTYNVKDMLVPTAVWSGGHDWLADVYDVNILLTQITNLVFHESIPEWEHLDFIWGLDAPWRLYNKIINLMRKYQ
The experiment in a line: Lipase activity assay (4-MUP), SUM-159 cell lysate. The class given is biochemical. The protocol: Lipase activity assay: Lipase activity assays were performed as described previously (Dairaku, et al)^37. Briefly, a 0.345 mM substrate solution was prepared from 1.2 mL of 13.3 mM 4-MUP and 42 mL of 100 mM sodium acetate buffer pH 4.0, 1.0% (v/v) Triton X-100 and 3.0 mL of 0.5% (w/v) cardiolipin. For the enzyme reaction, 50 μL of the substrate in buffer solution, 40 μL of diluted cell lysate and 10 μL of DMSO or 30 μM Lalistat2 or 30 μM ERX-41 were combined in a black 96-well plate. The plates were sealed with an adhesive aluminum film and incubated in a 37° C. incubator for 1 h. The reactions were terminated using 200 μL of 150 mM EDTA at pH 11.5. The fluorescence of the plates were read immediately with synergy H1 fluorescence microplate reader (BioTek) using a 365-nm excitation filter and a 450-nm emission filter. The LIPA lipase activity was calculated by subtracting the enzymatic activity of the inhibited (with Lalistat2) reaction from that of the uninhibited (without Lalistat2) reaction.

A further series relates to TNBC. The experiment in a line: ER stress, cell death and lysosomes in TNBC (discussion, no method). The class given is cell-based.

Regarding `CC(C)COc1cc(C(=O)Nc2ccc(C(=O)N[C@H]3CC[C@H](C(=O)Nc4cnc5ccccc5c4)CC3)cc2OCC(C)C)ccc1NC(=O)c1ccc(F)c(OCCO)c1` [ERX-315], in series [1] (FIG. 17), the “effectiveness in cell culture models of cancer” value is “effective in each cell line tested”. In addition, in series [1] (read-out: IC50 against ovarian cancer cells and breast cancer cells), the IC50 fell in the range of 10 to 50 nM. Besides, the “Ki67 proliferation indices of tumors” value in series [2] (histologic evaluation) is recorded as “dramatically decreased K167 proliferation indices”. Also, the “activity against therapy resistant BC xenografts” value in series [2] (oral, captisol formulation, listed as TK315) was “decreased the growth and tumor weight; also recorded: potent activity”. In addition, the “mouse liver or body weight” value in series [2] (oral, listed as TK315) is “No change in body weight; also recorded: no effect on mouse liver or body weight”. The “immunogenicity, immune infiltrates in spleen, lymph nodes, kidney, liver” value in series [3] is recorded as “not immunogenic”.
Turning to `C[C@]12CC[C@@H]3c4ccc(O)cc4C[C@@H](CCCCCCCCC[S+]([O-])CCCC(F)(F)C(F)(F)F)[C@H]3[C@@H]1CC[C@@H]2O` (stereo partly drawn) [fulvestrant], the “interaction with ERα LBD” value on ER Alpha-LBD (GST) was “interact with ERG LBD”.
With tunicamycin [reference compound], the “inducibility of UPR genes in LIPA KO cells” value in [4] is on record as “preserved”.
Turning to `CC(C)COc1cc(C(N)=O)ccc1NC(=O)c1ccc(NC(=O)c2ccc([N+](=O)[O-])c(OCCO)c2)c(OCC(C)C)c1` [ERX-11, reference compound], the IC50 in series [5] is 200 to 500 nM; in [6] (MTT, SUM-159 and MDA-MB-231, read-out: IC50 against TNBC cells), above 10000 nM; in [7] it was 200 to 500 nM. The “anti-tumor activity in TNBC cells” value in series [6] (TNBC cells (lack expression of ERα)) is “did not show anti-tumor activity”. In addition, the “interaction with ERα LBD” value on ER Alpha-LBD (GST) is given as “interact with ERG LBD”. Besides, the oral bioavailability result in series [8] was “orally bioavailable”.
In the case of `C/C=C(/C)C(=O)O[C@H]1C(C)=C2[C@H]([C@@H]1OC(=O)CCCCCCC)[C@@](C)(OC(C)=O)C[C@H](OC(=O)CCC)[C@@]1(O)[C@H]2OC(=O)[C@@]1(C)O` [thapsigargin, reference compound], the “inducibility of UPR genes in LIPA KO cells” value in series [4] is recorded as “preserved”.
For `O=C(Oc1nsnc1N1CCCCC1)N1CCCCC1` [Lalistat 2], the “lipase function (other lipases) in LIPA-KO cells” value at LAL lipase activity (LIPA-KO cells) was “lack of inhibitory activity on lipase function”. The “lipase activity of LIPA” value on LAL lipase activity (SUM-159 cells, 30 μM) is on record as “attenuated lipase activity”. The “induction of ER stress or cell death in TNBC” value with TNBC was “does not induce ER stress or cell death in TNBC”.
